In paper PMC8175851, “Effects of Genetic Polymorphism in CYP2D6, CYP2C19, and the Organic Cation Transporter OCT1 on Amitriptyline Pharmacokinetics in Healthy Volunteers and Depressive Disorder Patients” (Frontiers in Pharmacology, 2021):
“And” between values parts separate entries of the source, which are not always exact repeats. Identical values can stand only once. Like-named read-outs stand apart in the source and are kept apart here.

Test: Pharmacokinetics of AT and NT in healthy volunteers after a single dose of 25 mg amitriptyline
Format: in vivo, human
Conditions: for AUC(0-inf) / AUC(0-t) / Cmax / Tmax / half-life: both sexes, human, plasma, po, 25 mg, single oral 25 mg AT; for AUC(0-t): read-out: AUC48h; for Cmax: read-out: Cmax
Excerpt: In order to enrich the study sample with the less frequent functionally deficient OCT1 variants, participants were selected based on OCT1 genotype from an internal database at the Institute of Clinical Pharmacology of the University Medical Center Göttingen. All volunteers who are listed in the internal database had agreed to it and the database was approved by the ethics committee of the University of Göttingen. […] Additional subjects with heterozygous genotypes were included to provide a better understanding of the effects of specific variants and the mode of inheritance. All volunteers gave their written informed consent before participation in the study. The study was approved by the ethics committee of the University of Göttingen and the German Federal Institute for Drugs and Medical Devices (BfArM). It was registered at the clinical trials databases Clinicaltrials.gov (NCT02054299) and EudraCT (number 2012-003546-33). […] Volunteers who underwent regular drug treatments other than oral contraceptives or who suffered from any relevant chronic illness, as well as pregnant or lactating women, were not included. All subjects were healthy according to a detailed medical history, medical examination, electrocardiogram, urine status and clinical chemistry, and haematology parameters (sodium, potassium, total bilirubin, aspartate aminotransferase, alanine-aminotransferase, creatinine, C-reactive protein, thyroid-stimulating hormone, haemoglobin, erythrocyte, thrombocyte, and leucocyte counts). […] After centrifugation (13,000 rpm, 15 min, room temperature), two-thirds of the supernatant were transferred to a new reaction tube and evaporated at 40°C under nitrogen flow. The residue was reconstituted under shaking in 0.1% methanoic acid and briefly centrifuged before quantification using a Nexera UHPLC system (Shimadzu, Kyoto, Japan) coupled to an API 4000 tandem mass spectrometer (AB Sciex, Darmstadt, Germany). […] PerkinElmer, Rodgau, Germany) with a Phenomenex C18 pre-column (4 × 2 mm, Phenomenex, Aschaffenburg, Germany). […] The lower limit of quantification was 0.5 ng/ml for AT and 0.1 ng/ml for NT. […] The mass spectrometry detection parameters are listed in Supplementary Table S1. For the study in healthy volunteers, the primary endpoints were the AUCs of plasma AT and NT concentrations. Secondary endpoints were the other pharmacokinetic parameters of AT and NT, as well as heart rate, blood pressure, pupil size effects, and possible adverse events (headache, fatigue, visual or hearing impairments, restlessness, nausea, dizziness, dry mouth, tremor, as well as sensations of hypothermia and heart palpitations determined using a visual analogue scale test). Pharmacokinetic parameters were calculated by non-compartmental analysis using Phoenix 64 WinNonlin version 6.3 (Certara Inc., Princeton, NJ, United States). AUCinf of AT was calculated from the time of dosing using the linear/log trapezoidal rule and extrapolated to infinity based on the last predicted concentration and using the terminal elimination rate constant (lambda z). AUC of NT was calculated from the time of dosing until the last measurement at 48 h using the linear/log trapezoidal rule, as a decline in NT concentrations was not observed in some subjects and extrapolation to infinity thus not possible.

[1] = healthy volunteers, 0 active OCT1 alleles (n = 12)
[2] = healthy volunteers, 1 active OCT1 allele (n = 9)
[3] = healthy volunteers, 2 active OCT1 alleles (n = 14)
[4] = healthy volunteers, CYP2C19 activity score 1 (n = 5), mean
[5] = healthy volunteers, CYP2C19 activity score 1.5 (n = 2), mean
[6] = healthy volunteers, CYP2C19 activity score 2 (n = 16), mean
[7] = healthy volunteers, CYP2C19 activity score 2.5 (n = 10), mean
[8] = healthy volunteers, CYP2D6 activity 0 (n = 3), mean
[9] = healthy volunteers, CYP2D6 activity 0.5 (n = 2), mean
[10] = healthy volunteers, CYP2D6 activity 1 (n = 10), mean
[11] = healthy volunteers, CYP2D6 activity 1.5 (n = 6), mean
[12] = healthy volunteers, CYP2D6 activity 2 (n = 11), mean
[13] = healthy volunteers, CYP2D6 activity 2.5 (n = 1), mean
[14] = healthy volunteers, CYP2D6 activity 3 (n = 2), mean

CN(C)CCC=C1c2ccccc2CCc2ccccc21 [Amitriptyline, amitriptyline]
maximum concentration of unbound AT in the portal vein (estimated) (based on the calculations by Ahlin et al. and Ito et al., listed as AT): 745.9 µg/L and 2.69 µM | AUC(0-inf) (35 healthy volunteers, read-out: AUCinf (range over all volunteers)): 110 to 430 ng·h/mL | AUC(0-t) [1]: 162 ± 40.5 ng·h/mL | AUC(0-inf) (healthy volunteers, 0 active OCT1 alleles (n = 12), read-out: AUCinf): 199 ± 60 ng·h/mL | Cmax [1]: 9.9 ± 3.9 ng/mL | AUC(0-t) [2]: 184 ± 56 ng·h/mL | AUC(0-inf) (healthy volunteers, 1 active OCT1 allele (n = 9), read-out: AUCinf): 228 ± 72.4 ng·h/mL | Cmax [2]: 10.5 ± 3.3 ng/mL | AUC(0-t) [3]: 194 ± 66.3 ng·h/mL | AUC(0-inf) (healthy volunteers, 2 active OCT1 alleles (n = 14), read-out: AUCinf): 243 ± 87.5 ng·h/mL | Cmax [3]: 11.6 ± 4 ng/mL | AUC(0-t) [4]: 183 ng·h/mL | AUC(0-inf) (healthy volunteers, CYP2C19 activity score 1 (n = 5), mean, read-out: AUCinf): 231 ng·h/mL | Cmax [4]: 11.1 ng/mL | AUC(0-t) [5]: 256 ng·h/mL | AUC(0-inf) (healthy volunteers, CYP2C19 activity score 1.5 (n = 2), mean, read-out: AUCinf): 317 ng·h/mL | Cmax [5]: 16.2 ng/mL | AUC(0-t) [6]: 172 ng·h/mL | AUC(0-inf) (healthy volunteers, CYP2C19 activity score 2 (n = 16), mean, read-out: AUCinf): 210 ng·h/mL | Cmax [6]: 10.5 ng/mL | AUC(0-t) [7]: 171 ng·h/mL | AUC(0-inf) (healthy volunteers, CYP2C19 activity score 2.5 (n = 10), mean, read-out: AUCinf): 211 ng·h/mL | Cmax [7]: 9.5 ng/mL | AUC(0-t) [8]: 236 ng·h/mL | AUC(0-inf) (healthy volunteers, CYP2D6 activity 0 (n = 3), mean, read-out: AUCinf): 311 ng·h/mL | Cmax [8]: 10.9 ng/mL | AUC(0-t) [9]: 166 ng·h/mL | AUC(0-inf) (healthy volunteers, CYP2D6 activity 0.5 (n = 2), mean, read-out: AUCinf): 214 ng·h/mL | Cmax [9]: 12.7 ng/mL | AUC(0-t) [10]: 199 ng·h/mL | AUC(0-inf) (healthy volunteers, CYP2D6 activity 1 (n = 10), mean, read-out: AUCinf): 251 ng·h/mL | Cmax [10]: 11.9 ng/mL | AUC(0-t) [11]: 184 ng·h/mL | AUC(0-inf) (healthy volunteers, CYP2D6 activity 1.5 (n = 6), mean, read-out: AUCinf): 226 ng·h/mL | Cmax [11]: 10.3 ng/mL | AUC(0-t) [12]: 162 ng·h/mL | AUC(0-inf) (healthy volunteers, CYP2D6 activity 2 (n = 11), mean, read-out: AUCinf): 196 ng·h/mL | Cmax [12]: 10 ng/mL | AUC(0-t) [13]: 142 ng·h/mL | AUC(0-inf) (healthy volunteers, CYP2D6 activity 2.5 (n = 1), mean, read-out: AUCinf): 158 ng·h/mL | Cmax [13]: 7 ng/mL | AUC(0-t) [14]: 130 ng·h/mL | AUC(0-inf) (healthy volunteers, CYP2D6 activity 3 (n = 2), mean, read-out: AUCinf): 157 ng·h/mL | Cmax [14]: 10.2 ng/mL | Tmax [1]: 3.4 ± 1.6 h | half-life [1]: 20.3 ± 3.8 h | Tmax [2]: 3.1 ± 1 h | half-life [2]: 20.5 ± 3.9 h | Tmax [3]: 2.9 ± 1.4 h | half-life [3]: 21 ± 4 h | Tmax [4]: 2.6 h | half-life [4]: 21.6 h | Tmax [5]: 2 h | half-life [5]: 20.3 h | Tmax [6]: 3.2 h | half-life [6]: 20.1 h | Tmax [7]: 3.6 h | half-life [7]: 19.8 h | Tmax [8]: 3.4 h | half-life [8]: 23.7 h | Tmax [9]: 2 h | half-life [9]: 24.2 h | Tmax [10]: 2.7 h | half-life [10]: 21.4 h | Tmax [11]: 3.7 h
